pIC50: −log10 of the molar value. Activity calls are given as the source filed them. No cut-off for these calls is given here.

Data set [1] in a line: cells. To be noted: Homo sapiens, HCT-116, 72 h.
The nature of data set [2]: cells. Conditions: Homo sapiens, PC-3, 72 h.
Data set [3] has as its system MCF7. The data set is described as follows: cells. Conditions: Homo sapiens, MCF7, 72 h.
For data set [4], the target named is T1, Serine/threonine-protein kinase mTOR (Homo sapiens, UniProt P42345). Briefly: Inhibition of human mTOR using ULight-4E-BP1 peptide as substrate after 1 hr by Lance ultra assay.
Data set [5] addresses T1, Serine/threonine-protein kinase mTOR. Briefly: Inhibition of human mTOR at 3000 nM using ULight-4E-BP1 peptide as substrate after 1 hr by Lance ultra assay.
Another data set deals with Liver microsome. The data set is described as follows: Stability in rat liver microsomes after 30 mins. It counts as ADME. To be noted: 0.5 h. (In general: Liver microsomes are vesicles of endoplasmic reticulum, rich in cytochrome P450 enzymes.)
Data set [6] is described as follows: Stability in simulated gastric fluid after 45 mins. The data set is classed as ADME. Conditions: simulated gi fluid, 0.75 h.
Data set [7] is described as follows: Stability in simulated intestinal fluid after 45 mins. It counts as ADME. Conditions: simulated gi fluid, 0.75 h.
For data set [8], the target named is T2, Phosphatidylinositol 4,5-bisphosphate 3-kinase catalytic subunit alpha isoform (Homo sapiens, UniProt P42336). The data set is described as follows: Inhibition of human recombinant PI3Kalpha using PIP2 as substrate at 1 uM after 1 hr by Kinase-Glo luminescent assay.
T2 sequence (P42336 whole entry, canonical isoform): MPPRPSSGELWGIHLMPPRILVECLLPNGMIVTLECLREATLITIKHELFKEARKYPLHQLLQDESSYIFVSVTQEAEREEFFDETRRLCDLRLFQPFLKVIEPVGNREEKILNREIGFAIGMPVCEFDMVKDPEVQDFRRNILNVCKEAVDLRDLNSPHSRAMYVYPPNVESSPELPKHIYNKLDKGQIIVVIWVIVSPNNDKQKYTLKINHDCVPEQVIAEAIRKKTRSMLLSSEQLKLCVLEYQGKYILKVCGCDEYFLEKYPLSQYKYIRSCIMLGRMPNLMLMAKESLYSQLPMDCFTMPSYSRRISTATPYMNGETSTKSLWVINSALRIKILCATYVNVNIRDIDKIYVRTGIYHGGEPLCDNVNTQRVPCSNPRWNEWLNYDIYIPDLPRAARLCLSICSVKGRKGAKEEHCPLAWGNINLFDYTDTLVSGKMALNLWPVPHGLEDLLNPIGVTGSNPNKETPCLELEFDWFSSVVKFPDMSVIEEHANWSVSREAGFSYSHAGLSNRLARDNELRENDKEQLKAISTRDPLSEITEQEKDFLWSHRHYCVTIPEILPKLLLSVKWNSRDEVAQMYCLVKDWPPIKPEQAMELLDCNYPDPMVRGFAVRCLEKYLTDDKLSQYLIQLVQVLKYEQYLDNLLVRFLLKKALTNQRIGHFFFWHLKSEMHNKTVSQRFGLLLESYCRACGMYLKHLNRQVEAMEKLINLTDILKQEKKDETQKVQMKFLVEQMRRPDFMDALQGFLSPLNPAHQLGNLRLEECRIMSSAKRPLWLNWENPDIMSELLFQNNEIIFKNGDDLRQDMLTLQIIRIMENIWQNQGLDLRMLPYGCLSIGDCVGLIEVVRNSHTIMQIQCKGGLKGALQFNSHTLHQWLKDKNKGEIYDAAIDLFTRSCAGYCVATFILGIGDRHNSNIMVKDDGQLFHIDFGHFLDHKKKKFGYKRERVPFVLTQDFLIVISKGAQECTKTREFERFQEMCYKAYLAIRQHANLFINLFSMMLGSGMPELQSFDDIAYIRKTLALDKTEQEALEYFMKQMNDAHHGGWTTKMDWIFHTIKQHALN
Data set [9] concerns the target T3, Phosphatidylinositol 4,5-bisphosphate 3-kinase catalytic subunit beta isoform (Homo sapiens, UniProt P42338). Briefly: Inhibition of PI3Kbeta (unknown origin) at 1 uM after 1 hr by ADP-Glo luminescent assay. (In general: ADP-Glo turns the ADP formed in a reaction into a luminescent signal.)
Target sequence in this assay (P42338 whole entry, looked up, canonical isoform): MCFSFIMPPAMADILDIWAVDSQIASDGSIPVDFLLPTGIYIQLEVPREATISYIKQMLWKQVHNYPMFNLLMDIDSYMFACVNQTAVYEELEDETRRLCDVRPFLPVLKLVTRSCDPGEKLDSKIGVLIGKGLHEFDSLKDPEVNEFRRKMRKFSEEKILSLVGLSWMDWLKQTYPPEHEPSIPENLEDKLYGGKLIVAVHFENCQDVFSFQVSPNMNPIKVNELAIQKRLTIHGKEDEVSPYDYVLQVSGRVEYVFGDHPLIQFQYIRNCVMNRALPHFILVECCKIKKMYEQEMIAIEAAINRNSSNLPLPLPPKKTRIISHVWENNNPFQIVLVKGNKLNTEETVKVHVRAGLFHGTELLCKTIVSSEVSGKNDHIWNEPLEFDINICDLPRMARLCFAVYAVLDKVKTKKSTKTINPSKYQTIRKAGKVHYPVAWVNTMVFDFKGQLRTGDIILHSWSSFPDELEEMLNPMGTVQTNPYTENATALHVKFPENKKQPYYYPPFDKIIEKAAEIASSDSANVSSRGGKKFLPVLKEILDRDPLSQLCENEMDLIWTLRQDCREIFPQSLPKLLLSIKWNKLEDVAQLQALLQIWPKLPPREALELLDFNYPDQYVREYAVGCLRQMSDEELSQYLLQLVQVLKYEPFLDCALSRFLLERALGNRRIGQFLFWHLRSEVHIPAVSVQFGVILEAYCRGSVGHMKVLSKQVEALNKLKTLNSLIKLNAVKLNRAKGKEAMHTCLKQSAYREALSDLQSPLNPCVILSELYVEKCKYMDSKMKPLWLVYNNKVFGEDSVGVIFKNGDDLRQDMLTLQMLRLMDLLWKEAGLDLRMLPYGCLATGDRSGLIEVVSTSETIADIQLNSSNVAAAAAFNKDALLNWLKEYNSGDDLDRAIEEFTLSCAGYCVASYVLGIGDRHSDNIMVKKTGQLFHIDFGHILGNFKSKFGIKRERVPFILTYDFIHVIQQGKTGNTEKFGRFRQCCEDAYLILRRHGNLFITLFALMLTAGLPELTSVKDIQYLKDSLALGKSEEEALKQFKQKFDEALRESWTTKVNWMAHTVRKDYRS
Data set [10] concerns the target T4, Phosphatidylinositol 4,5-bisphosphate 3-kinase catalytic subunit gamma isoform (Homo sapiens, UniProt P48736). The data set is described as follows: Inhibition of human PI3Kgamma at 1 uM after 1 hr by ADP-Glo luminescent assay.
Target sequence in this assay (P48736 whole entry, looked up, canonical isoform): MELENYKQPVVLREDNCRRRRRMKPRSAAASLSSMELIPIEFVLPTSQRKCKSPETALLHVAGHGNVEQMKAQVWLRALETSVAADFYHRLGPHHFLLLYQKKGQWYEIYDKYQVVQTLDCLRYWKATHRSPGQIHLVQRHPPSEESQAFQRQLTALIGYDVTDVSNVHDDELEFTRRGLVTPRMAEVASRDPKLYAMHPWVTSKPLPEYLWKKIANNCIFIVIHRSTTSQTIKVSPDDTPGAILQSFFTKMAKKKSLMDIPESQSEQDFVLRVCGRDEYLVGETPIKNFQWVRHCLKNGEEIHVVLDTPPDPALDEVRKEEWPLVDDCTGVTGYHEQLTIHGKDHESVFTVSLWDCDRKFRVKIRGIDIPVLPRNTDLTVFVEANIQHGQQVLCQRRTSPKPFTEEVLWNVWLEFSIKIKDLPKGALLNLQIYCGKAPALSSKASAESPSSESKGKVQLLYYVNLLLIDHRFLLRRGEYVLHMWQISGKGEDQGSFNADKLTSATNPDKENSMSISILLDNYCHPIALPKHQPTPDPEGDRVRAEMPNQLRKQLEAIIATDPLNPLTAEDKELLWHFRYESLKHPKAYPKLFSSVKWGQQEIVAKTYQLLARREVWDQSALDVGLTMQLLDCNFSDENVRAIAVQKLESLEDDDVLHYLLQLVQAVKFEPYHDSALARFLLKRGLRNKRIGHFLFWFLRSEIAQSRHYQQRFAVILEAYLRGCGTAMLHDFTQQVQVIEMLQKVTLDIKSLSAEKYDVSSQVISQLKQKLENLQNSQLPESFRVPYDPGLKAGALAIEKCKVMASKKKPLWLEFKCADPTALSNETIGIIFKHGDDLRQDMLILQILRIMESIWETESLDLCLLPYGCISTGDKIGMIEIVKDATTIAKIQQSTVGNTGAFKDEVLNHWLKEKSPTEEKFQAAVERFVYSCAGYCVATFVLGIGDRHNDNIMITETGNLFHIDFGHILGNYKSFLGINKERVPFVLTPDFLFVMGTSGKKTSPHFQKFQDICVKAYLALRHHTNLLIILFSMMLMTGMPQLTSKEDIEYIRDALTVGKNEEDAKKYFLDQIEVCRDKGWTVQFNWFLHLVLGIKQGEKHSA
The target in data set [11] is T5, Phosphatidylinositol 4,5-bisphosphate 3-kinase catalytic subunit delta isoform (Homo sapiens) (UniProt O00329).
T5 sequence (whole entry): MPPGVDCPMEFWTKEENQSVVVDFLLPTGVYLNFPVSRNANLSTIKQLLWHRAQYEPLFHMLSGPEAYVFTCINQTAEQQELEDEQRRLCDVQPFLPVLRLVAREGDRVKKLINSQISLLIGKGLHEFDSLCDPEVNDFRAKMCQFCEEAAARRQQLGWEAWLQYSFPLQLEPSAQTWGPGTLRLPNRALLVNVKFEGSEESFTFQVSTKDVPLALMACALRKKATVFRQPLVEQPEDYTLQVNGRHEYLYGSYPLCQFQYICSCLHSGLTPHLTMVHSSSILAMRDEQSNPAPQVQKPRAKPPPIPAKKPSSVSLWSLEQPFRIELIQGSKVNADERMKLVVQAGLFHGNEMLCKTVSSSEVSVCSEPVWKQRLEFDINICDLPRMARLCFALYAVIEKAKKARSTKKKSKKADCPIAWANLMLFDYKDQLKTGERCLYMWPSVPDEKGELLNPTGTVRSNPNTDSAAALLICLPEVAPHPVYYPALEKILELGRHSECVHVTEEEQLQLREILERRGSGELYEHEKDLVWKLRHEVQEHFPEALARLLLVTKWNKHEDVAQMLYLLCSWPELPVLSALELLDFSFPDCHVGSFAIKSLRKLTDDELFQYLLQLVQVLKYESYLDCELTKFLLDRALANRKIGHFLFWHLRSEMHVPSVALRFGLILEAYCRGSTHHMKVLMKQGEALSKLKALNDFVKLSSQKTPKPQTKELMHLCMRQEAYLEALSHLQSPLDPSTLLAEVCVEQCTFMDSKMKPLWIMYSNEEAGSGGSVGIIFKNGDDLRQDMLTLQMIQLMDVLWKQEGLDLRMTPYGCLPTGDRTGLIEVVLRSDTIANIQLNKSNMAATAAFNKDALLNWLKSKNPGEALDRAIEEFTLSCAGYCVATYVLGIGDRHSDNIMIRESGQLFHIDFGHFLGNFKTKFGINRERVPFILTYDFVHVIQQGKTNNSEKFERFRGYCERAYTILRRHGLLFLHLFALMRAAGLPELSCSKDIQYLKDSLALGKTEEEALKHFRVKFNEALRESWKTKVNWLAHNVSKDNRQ
Briefly: Inhibition of PI3Kdelta (unknown origin) at 1 uM after 1 hr by ADP-Glo luminescent assay.

Data set [12] has as its target T2, Phosphatidylinositol 4,5-bisphosphate 3-kinase catalytic subunit alpha isoform. The data set is described as follows: Inhibition of human recombinant PI3Kalpha using PIP2 as substrate after 1 hr by Kinase-Glo luminescent assay.
The target of data set [13] is T3, Phosphatidylinositol 4,5-bisphosphate 3-kinase catalytic subunit beta isoform. The data set is described as follows: Inhibition of PI3Kbeta (unknown origin) after 1 hr by ADP-Glo luminescent assay.
Target sequence in this assay (P42338 whole entry, canonical isoform): as the sequence (P42338 whole entry, looked up, canonical isoform) above
Data set [14] addresses T4, Phosphatidylinositol 4,5-bisphosphate 3-kinase catalytic subunit gamma isoform. The data set is described as follows: Inhibition of human PI3Kgamma after 1 hr by ADP-Glo luminescent assay.
Target sequence in this assay (P48736 whole entry, canonical isoform): as the sequence (P48736 whole entry, looked up, canonical isoform) above
Data set [15] concerns the target T6, Phosphatidylinositol 4,5-bisphosphate 3-kinase catalytic subunit delta isoform (Homo sapiens, UniProt O00329).
T6 sequence (O00329 whole entry): T5 sequence (whole entry)
Briefly: Inhibition of PI3Kdelta (unknown origin) after 1 hr by ADP-Glo luminescent assay.

Data set [16] has as its target T7, mTORC1 (Homo sapiens) (UniProt P42345+Q8N122+Q9BVC4). The data set is described as follows: Inhibition of mTORC1 in human MCF7 cells assessed as downregulation of S6 Ser235 phosphorylation at 0.5 uM after 2 hrs by Western blot analysis. The data set is classed as cell-based.
The test system of data set [17] is MCF7. Briefly: Inhibition of mTORC2 in human MCF7 cells assessed as downregulation of Akt Ser473 phosphorylation at 0.5 uM after 2 hrs by Western blot analysis. It counts as cell-based.
The target in data set [18] is T7, mTORC1 (Homo sapiens). The data set is described as follows: Inhibition of mTORC1 in human MCF7 cells assessed as downregulation of S6 Ser235 phosphorylation at 0.1 uM after 2 hrs by Western blot analysis. The data set is classed as cell-based. On the technique in general: In western blotting, separated proteins are transferred to a membrane and probed.
For data set [19], the system named is MCF7. The data set is described as follows: Inhibition of mTORC2 in human MCF7 cells assessed as downregulation of Akt Ser473 phosphorylation at 0.1 uM after 2 hrs by Western blot analysis. The data set is classed as cell-based.

T7 sequence (Q8N122 whole entry, looked up, other chains not shown): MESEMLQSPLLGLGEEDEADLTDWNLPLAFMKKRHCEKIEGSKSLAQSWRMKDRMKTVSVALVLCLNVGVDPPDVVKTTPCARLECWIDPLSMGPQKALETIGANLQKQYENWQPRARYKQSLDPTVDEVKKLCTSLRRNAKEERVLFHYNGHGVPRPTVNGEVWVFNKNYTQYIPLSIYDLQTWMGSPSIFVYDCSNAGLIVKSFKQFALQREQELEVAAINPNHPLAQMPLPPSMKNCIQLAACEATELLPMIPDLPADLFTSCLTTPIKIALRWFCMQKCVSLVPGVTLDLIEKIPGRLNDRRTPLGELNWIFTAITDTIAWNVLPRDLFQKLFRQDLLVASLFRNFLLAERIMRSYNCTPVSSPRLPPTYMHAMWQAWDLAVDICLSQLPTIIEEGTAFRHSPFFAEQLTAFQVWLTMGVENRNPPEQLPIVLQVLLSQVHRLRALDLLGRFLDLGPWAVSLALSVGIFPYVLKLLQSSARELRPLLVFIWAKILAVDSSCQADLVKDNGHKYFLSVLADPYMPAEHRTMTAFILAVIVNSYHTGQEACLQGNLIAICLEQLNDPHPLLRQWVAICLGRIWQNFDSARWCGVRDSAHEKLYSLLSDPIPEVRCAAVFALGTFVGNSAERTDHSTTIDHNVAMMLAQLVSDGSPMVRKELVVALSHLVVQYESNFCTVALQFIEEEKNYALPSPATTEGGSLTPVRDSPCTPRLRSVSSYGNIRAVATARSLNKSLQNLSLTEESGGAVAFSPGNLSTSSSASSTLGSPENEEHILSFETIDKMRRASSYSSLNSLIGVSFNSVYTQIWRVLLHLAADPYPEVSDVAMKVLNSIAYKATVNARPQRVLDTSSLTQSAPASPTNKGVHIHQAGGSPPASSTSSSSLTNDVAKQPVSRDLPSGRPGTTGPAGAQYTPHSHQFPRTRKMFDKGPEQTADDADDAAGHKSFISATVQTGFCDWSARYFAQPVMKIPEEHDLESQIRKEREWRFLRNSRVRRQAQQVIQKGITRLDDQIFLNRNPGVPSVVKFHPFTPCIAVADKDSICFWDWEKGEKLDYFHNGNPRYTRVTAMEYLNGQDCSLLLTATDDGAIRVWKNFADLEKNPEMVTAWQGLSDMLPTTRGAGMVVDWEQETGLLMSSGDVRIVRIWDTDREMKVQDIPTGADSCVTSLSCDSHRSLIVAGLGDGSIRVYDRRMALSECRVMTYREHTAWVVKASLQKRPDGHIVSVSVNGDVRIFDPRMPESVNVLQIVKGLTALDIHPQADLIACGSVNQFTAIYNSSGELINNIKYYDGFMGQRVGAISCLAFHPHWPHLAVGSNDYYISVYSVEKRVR
T7 sequence (Q9BVC4 whole entry, looked up, other chains not shown): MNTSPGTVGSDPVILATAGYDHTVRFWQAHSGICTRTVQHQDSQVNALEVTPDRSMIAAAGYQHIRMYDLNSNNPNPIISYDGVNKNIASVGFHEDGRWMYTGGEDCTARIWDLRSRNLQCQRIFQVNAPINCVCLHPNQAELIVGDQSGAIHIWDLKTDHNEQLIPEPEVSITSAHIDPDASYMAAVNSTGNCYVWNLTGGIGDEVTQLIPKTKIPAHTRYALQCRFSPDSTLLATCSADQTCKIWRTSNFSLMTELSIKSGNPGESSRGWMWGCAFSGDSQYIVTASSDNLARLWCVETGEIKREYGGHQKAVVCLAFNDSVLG

For `CC(C)(C#N)c1ccc(Nc2c(NS(C)(=O)=O)cnc3ccc(-c4cnc5ccccc5c4)cc23)cc1`, the pIC50 in the data set “cells [1]” and in the data set “cells [2]” was < 5.00 throughout.

As for `Cn1c(=O)n(-c2ccc(C(C)(C)C#N)cc2)c2c3cc(-c4cnc5ccccc5c4)ccc3ncc21` [DACTOLISIB], the pIC50 in “cells [1]” is 6.85; in “cells [2]”, 6.72.

For the molecule `CS(=O)(=O)Nc1cnc2ccc(-c3cnc4ccccc4c3)cc2c1Nc1ccc(N2CCNCC2)c(C(F)(F)F)c1`, the values for the pIC50 in the data set “cells [1]”, in “cells [2]” and in the data set with MCF7 [3] were 5.84, 5.27 and 5.95, respectively.

Take `Nc1cnc2ccc(-c3cnc4ccccc4c3)cc2c1Nc1ccc(N2CCNCC2)c(C(F)(F)F)c1`: the pIC50 is 5.79 in “cells [1]”, 5.46 in the data set “cells [2]” and 6.33 with MCF7 [3].

In the case of `CC(=O)Nc1cnc2ccc(-c3cnc4ccccc4c3)cc2c1Nc1ccc(C(F)(F)F)cc1`, the results for the pIC50 (in data set [4]; in the data set “cells [1]”; in the data set “cells [2]”) were < 5.52, < 5.00 and < 5.00, respectively.

As to `CC(=O)Nc1cnc2ccc(-c3cnc4ccccc4c3)cc2c1Nc1ccc(C#N)cc1`, the pIC50 in data set [4] was < 5.52; in “cells [1]”, < 5.00; in the data set “cells [2]”, < 5.00.

In the case of `CC(C)(C)C(=O)Nc1cnc2ccc(-c3cnc4ccccc4c3)cc2c1Nc1ccc(N2CCNCC2)c(C(F)(F)F)c1`, the values for the pIC50 in “cells [1]”, in “cells [2]” and with MCF7 [3] were 6.19, 5.98 and 6.52, respectively.

For `CC(=O)Nc1cnc2ccc(-c3cnc4ccccc4c3)cc2c1Nc1ccc(N2CCN(S(C)(=O)=O)CC2)c(C(F)(F)F)c1`, the values for the pIC50 in the data set “cells [1]”, in the data set “cells [2]” and in the data set with MCF7 [3] were 6.37, 6.72 and 7.22, respectively.

Consider `CC(C)(C#N)c1ccc(Nc2c(N(S(C)(=O)=O)S(C)(=O)=O)cnc3ccc(-c4cnc5ccccc5c4)cc23)cc1`, for which the pIC50 in “cells [1]” and in the data set “cells [2]” was < 5.00 throughout.

`CC(C)(C)C(=O)Nc1cnc2ccc(-c3cnc4ccccc4c3)cc2c1Nc1ccc(C(C)(C)C#N)cc1`: the pIC50 in “cells [1]” and in the data set “cells [2]” was < 5.00 throughout.

Take `CC(=O)Nc1cnc2ccc(-c3cnc4ccccc4c3)cc2c1Nc1ccc(C(C)(C)C#N)cc1`: the pIC50 is 5.40 in the data set “cells [1]”, 5.59 in “cells [2]” and 6.36 in the data set on MCF7 [3].

On to `CC(=O)N1CCN(c2ccc(Nc3c(NC(=O)C(C)(C)C)cnc4ccc(-c5cnc6ccccc6c5)cc34)cc2C(F)(F)F)CC1`, for which the pIC50 is < 5.00 in “cells [1]”, < 5.00 in the data set “cells [2]” and 6.10 in the data set on MCF7 [3].

Consider `O=C(Nc1cnc2ccc(-c3cnc4ccccc4c3)cc2c1Nc1ccc(N2CCNCC2)c(C(F)(F)F)c1)C(F)(F)F`, for which the pIC50 in “cells [1]” was 5.91; in the data set “cells [2]” it was 5.42; in the data set on MCF7 [3] it was 6.49.

In the case of `COc1cc(Nc2c(NC(C)=O)cnc3ccc(-c4cnc5ccccc5c4)cc23)cc(OC)c1`, the negative logarithm of the IC50 (pIC50) in data set [4] was < 5.52; in the data set “cells [1]” it was < 5.00; in “cells [2]”, < 5.00.

Take `CC(C)(C#N)c1ccc(Nc2c(NC(=O)C(F)(F)F)cnc3ccc(-c4cnc5ccccc5c4)cc23)cc1`: the inhibition in [5] is 92%. For the same molecule, the values for the pIC50 in the data set “cells [1]”, in “cells [2]” and with MCF7 [3] were < 5.00, < 5.00 and 5.87, respectively.

Turning to `CC(=O)Nc1cnc2ccc(-c3cnc4ccccc4c3)cc2c1Nc1ccc(N2CCNCC2)c(C(F)(F)F)c1.Cl`, the Stability result (with Liver microsome; in [6]; in data set [7]) was “Stable” in each case. Besides, the pIC50 in data set [4] was 7.66; in the data set “cells [1]”, 6.44; in “cells [2]”, 6.30; in the data set on MCF7 [3] it was 6.96. Besides, the inhibition is 42.1% in data set [8], 1% in data set [9], 47.3% in data set [10] and 34.9% in [11].

With `CC(=O)Nc1cnc2ccc(-c3cnc4ccccc4c3)cc2c1Nc1ccc(N2CCN(C(C)=O)CC2)c(C(F)(F)F)c1`, the negative-log IC50 (pIC50) was 7.52 in data set [4]; 5.82 in data set [12]; < 5.30 in [13]; 6.30 in [14]; 5.68 in data set [15]; 6.96 in “cells [1]”. Besides, the pIC50 in “cells [2]” was 6.77; with MCF7 [3] it was 7.40. The result on mTORC1 (Homo sapiens) [16], with MCF7 [17], on mTORC1 (Homo sapiens) [18] and in the data set on MCF7 [19] was Active.

For orientation: pIC50 means the negative decadic logarithm of the IC50, by convention in mol/L. Broadly, the inhibition is the drop in the measured response relative to a control, in per cent.

The values above are taken from ChEMBL document CHEMBL3779897, “Novel quinoline-derived mTOR inhibitors with remarkable enzymatic and cellular activities: design, synthesis and biological evaluation” (Medchemcomm, 2016).
